Patent US20120213727A1, “THERAPEUTIC USES OF OLIGOMERIC AND POLYMERIC MONOTERPENES” (REGENERA PHARMA LTD., priority 2009, published 2012)

Tested on: ARPE-19 cells
Test: Neuronal-like differentiation in ARPE-19 retinal pigment epithelial cell cultures
Format: cell-based, human
Details: 72 hrs incubation, optical microscope
Method: ARPE-19 cells (obtained from the American Type Culture Collection, ATCC) were plated in flat bottom 96 well tissue culture microplates (Costar) at a concentration of 2-5×10^3 cells per well (1-2.5×10^4 cells/mL) in a growth medium consisting of DMEM:Ham F-12, 1:1, supplemented with 10% Fetal Bovine Serum, […] glutamine, 100 units/mL penicillin and 100 μg/mL streptomycin. The cells were allowed to adhere to the plate surfaces overnight prior to treatment with polymeric monoterpene.
Each type of polymeric monoterpene was synthesized to provide a 10% solution in grape seed oil, olive oil, Mygliol 810 or Mygliol 812. The preparations were added to the cultures at volumes of 0.5 μl, 2 μl, 5 μl and 20 μl. […]
The cultures were incubated in a 37° C., 5% CO2 incubator for 72 hrs. The medium was then removed, the cultures washed twice with phosphate buffered saline (PBS), fixed with absolute methanol for 10 min and stained with Hemacolor® reagents (Boehringer Mannheim), which stain cells in a manner similar to Giemsa, and may be used in a quantitative cell viability assay (see Keisari, Y. A colorimetric microtiter assay for the quantitation of cytokine activity on adherent cells in tissue culture. J. Immunol. Methods 146, 155-161, 1992). The degree of differentiation was determined by optical microscope. […]

SMILES: CC=C(C)C=CC=C(C)C [monomeric alloocimene, 2,6-dimethyl-2,4,6-octatriene]
- induction of neuronal differentiation (morphology): showed no such effects
- induction of neuronal differentiation (morphology) (listed as monomeric allocimene): has no influence on the cells
